≈ marks a conversion by molar mass, not a printed value.
Tests used:
Blood = experiment: Inhibition of TNFalpha-induced IL1-beta production in human whole blood after 2 to 5 hrs by ELISA; assay type: functional, tissue-based
[1] = target: T1, Mitogen-activated protein kinase 14 (Homo sapiens, UniProt Q16539); experiment: Inhibition of human recombinant p38alpha assessed as incorporation of 33P from gamma-[33P]ATP into myelin basic protein after 30 mins by scintillation counting
[2] = target: Tyrosine-protein kinase Lck (Homo sapiens, UniProt P06239); experiment: Inhibition of LCK
[3] = target: T1, Mitogen-activated protein kinase 14; experiment: Inhibition of p38alpha
[4] = Permeability of the compound from apical to basolateral side of human Caco2 cells at 10 uM after 21 days; assay type: ADME, cell-based; settings: Caco-2, read-out: permeability
[5] = Aqueous solubility of the compound in phosphate buffer at pH 6.5; assay type: physicochemical
[6] = Permeability of the compound from basolateral to apical side of human Caco2 cells at 10 uM after 21 days; assay type: ADME, cell-based; settings: Caco-2, read-out: permeability
Rattus norvegicus = experiment: Inhibition of LPS-induced TNFalpha production in rat serum at 3 mg/kg, po administered 30 mins before LPS challenge measured after […] by ELISA; assay type: functional
[7] = Oral bioavailability in Beagle dog at 10 mg/kg; assay type: ADME, organism-based, Canis lupus familiaris; settings: in vivo
[8] = Plasma protein binding in Hanover-Wistar rat by untrafiltration method; assay type: ADME, cell-free; settings: read-out: PPB (converted)
[9] = Volume of distribution at steady state in Beagle dog at 10 mg/kg, iv; assay type: ADME, organism-based, Canis lupus familiaris; set-up: dose 10 mg/kg, route intravenous; settings: in vivo, read-out: Vdss
[10] = Clearance in Beagle dog at 10 mg/kg, iv; assay type: ADME, organism-based, Canis lupus familiaris; set-up: dose 10 mg/kg, route intravenous; settings: in vivo
[11] = AUC (infinity) in Beagle dog at 10 mg/kg, po; assay type: ADME, organism-based, Canis lupus familiaris; set-up: time infinity, dose 10 mg/kg, route oral; settings: plasma
[12] = Tmax in Beagle dog at 10 mg/kg, po; assay type: ADME, organism-based, Canis lupus familiaris; set-up: dose 10 mg/kg, route oral; settings: in vivo
[13] = Plasma protein binding in Beagle dog by untrafiltration method; assay type: ADME, cell-free, Canis lupus familiaris; settings: read-out: PPB (converted)
[14] = AUC (infinity) in Hanover-Wistar rat at 10 mg/kg, po; assay type: ADME, organism-based; set-up: dose 10 mg/kg, route oral, time infinity; settings: plasma
[15] = Half life in Beagle dog at 10 mg/kg, po; assay type: ADME, organism-based, Canis lupus familiaris; set-up: dose 10 mg/kg, route oral; settings: in vivo
[16] = Cmax in Beagle dog at 10 mg/kg, po; assay type: ADME, organism-based, Canis lupus familiaris; set-up: dose 10 mg/kg, route oral; settings: in vivo

T1 sequence (Q16539 whole entry): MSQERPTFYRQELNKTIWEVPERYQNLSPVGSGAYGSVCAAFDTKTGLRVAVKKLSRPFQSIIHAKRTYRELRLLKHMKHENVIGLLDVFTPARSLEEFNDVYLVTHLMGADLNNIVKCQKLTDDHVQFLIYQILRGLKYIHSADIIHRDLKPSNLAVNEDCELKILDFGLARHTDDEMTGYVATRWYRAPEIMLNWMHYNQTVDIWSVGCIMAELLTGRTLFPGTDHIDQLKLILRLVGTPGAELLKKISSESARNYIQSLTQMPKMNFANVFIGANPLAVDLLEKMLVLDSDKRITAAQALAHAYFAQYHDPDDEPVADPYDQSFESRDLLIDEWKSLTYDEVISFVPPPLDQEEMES
Chain of Tyrosine-protein kinase Lck (P06239 whole entry): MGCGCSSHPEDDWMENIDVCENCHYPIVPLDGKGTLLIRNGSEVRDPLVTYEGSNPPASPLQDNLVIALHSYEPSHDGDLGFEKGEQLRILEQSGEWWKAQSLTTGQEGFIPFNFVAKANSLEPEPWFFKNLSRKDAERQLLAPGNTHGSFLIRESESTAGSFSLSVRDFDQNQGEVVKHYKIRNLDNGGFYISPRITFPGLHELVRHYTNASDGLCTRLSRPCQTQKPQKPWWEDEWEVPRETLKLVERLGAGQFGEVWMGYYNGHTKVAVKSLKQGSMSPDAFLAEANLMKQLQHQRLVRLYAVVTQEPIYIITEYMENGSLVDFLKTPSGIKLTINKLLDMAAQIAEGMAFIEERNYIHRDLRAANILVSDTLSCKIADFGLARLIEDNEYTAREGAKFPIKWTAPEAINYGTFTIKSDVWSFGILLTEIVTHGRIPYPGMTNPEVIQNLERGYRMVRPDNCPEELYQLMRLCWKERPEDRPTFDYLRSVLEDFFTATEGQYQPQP

Row | IC50 (Blood) [nM] | IC50 [1] [nM] | Structure (SMILES) | also measured
1 | 1220 | 594 | Cn1c(=O)c(Oc2cccc(F)c2)cc2cnc(NC3CCOCC3)nc21 | –
2 | 9 | – | C[C@@H](Cn1ncnn1)Nc1ncc2cc(Oc3ccc(F)cc3F)c(=O)n(C)c2n1 | Papp A→B at 10 µM [4]: 30.1 ×10⁻⁶ cm/s; solubility [5]: 23 µg/mL (≈ 55.5 µM); Papp B→A at 10 µM [6]: 19.7 ×10⁻⁶ cm/s; inhibition in vivo at 3 mg/kg (Rattus norvegicus): 90%
3 | 30 | 1 | CC(=O)N1CCC(Nc2ncc3cc(Oc4ccc(F)cc4F)c(=O)n(C)c3n2)CC1 | Papp A→B at 10 µM [4]: 17.9 ×10⁻⁶ cm/s; solubility [5]: 14 µg/mL (≈ 32.6 µM); Papp B→A at 10 µM [6]: 19.8 ×10⁻⁶ cm/s; inhibition in vivo at 3 mg/kg (Rattus norvegicus): 76%
4 | 85.7 | – | Cn1c(=O)c(-c2ccccc2Cl)cc2cnc(NC3CCOCC3)nc21 | Kd [2]: 1800 nM
5 | 15 | 7 | O=c1c(Oc2ccc(F)cc2F)cc2cnc(NC3CCOCC3)nc2n1C[C@H](O)CO | –
6 | 451 | – | Cn1c(=O)c(Oc2ccccc2)cc2cnc(NC3CCOCC3)nc21 | –
7 | 50 | – | C[C@H](CS(C)(=O)=O)Nc1ncc2cc(Oc3ccc(F)cc3F)c(=O)n(C)c2n1 | Papp A→B at 10 µM [4]: 13.5 ×10⁻⁶ cm/s; solubility [5]: 18 µg/mL (≈ 42.4 µM); Papp B→A at 10 µM [6]: 22.4 ×10⁻⁶ cm/s; inhibition in vivo at 3 mg/kg (Rattus norvegicus): 88%
8 | 45 | 4 | CC(C)Nc1ncc2cc(Oc3ccc(F)cc3F)c(=O)n(C)c2n1 | –
9 | – | 260 | CNc1ncc2cc(Oc3ccc(F)cc3F)c(=O)n(C)c2n1 | –

More lines, now with the values behind:

Row | Structure (SMILES) | IC50 (Blood) [nM] | IC50 [1] [nM] | also measured
10 | Cn1c(=O)c(Oc2ccc(F)cc2)cc2cnc(NC3CCOCC3)nc21 | 547 | – | –
11 | O=C1Nc2nc(N[C@H]3CC[C@H](O)CC3)ncc2CN1c1ccccc1Cl | – | – | Kd [2]: > 20000 nM; Kd [3]: 32 nM
12 | C[C@H](Cn1ncnn1)Nc1ncc2cc(Oc3ccc(F)cc3F)c(=O)n(C)c2n1 | 318 | – | –
13 | C[C@@H](CS(C)(=O)=O)Nc1ncc2cc(Oc3ccc(F)cc3F)c(=O)n(C)c2n1 | > 3000 | – | –
14 | Cl.Cn1c(=O)c(Oc2ccc(F)cc2F)cc2cnc(NC3CCOCC3)nc21 [R-1487 HYDROCHLORIDE] | – | – | bioavailability [7]: 10.3%; fraction unbound [8]: 0.044; Vd [9]: 4.65 L/kg; clearance [10]: 54.2 mL/min/kg; AUC(0-inf) [11]: 310 ng·h/mL; Tmax [12]: 0.5 h; fraction unbound [13]: 0.096; AUC(0-inf) [14]: 2350 ng·h/mL; half-life [15]: 2.23 h; Cmax [16]: 110 ng/mL
15 | Cn1c(=O)c(Oc2ccc(F)cc2F)cc2cnc(NCCS(C)(=O)=O)nc21 | 1490 | 223 | –
16 | O=c1c(Oc2ccc(F)cc2F)cc2cnc(NC3CCOCC3)nc2n1CCCO | 14 | – | –
17 | Cn1c(=O)c(Oc2ccc(F)cc2F)cc2cnc(N[C@H]3CCOC3)nc21 | 373 | 31 | –
18 | Cn1c(=O)c(Cc2ccc(F)cc2F)cc2cnc(NC3CCOCC3)nc21 | 713 | 40 | –
19 | N#CCn1c(=O)c(Oc2ccc(F)cc2F)cc2cnc(NC3CCOCC3)nc21 | 28 | 2 | –

From ChEMBL document CHEMBL1764984 (J Med Chem, 2011)
